Test results: the supplement of paper PMC10307832

Legend:
Assay in all cases: relative viability (nuclei count vs DMSO), 5 days (fraction); higher = more cells survive
VX-702 + Crizotinib = compound: NC(=O)c1ccc(N(C(N)=O)c2c(F)cccc2F)nc1-c1ccc(F)cc1F [VX-702] + C[C@@H](Oc1cc(-c2cnn(C3CCNCC3)c2)cnc1N)c1c(Cl)ccc(F)c1Cl [Crizotinib] (partner 1 µM)
How it was run: (§1)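 Cells from lung cancer lines were seeded into 1536-well plates and, one day later, dosed by pin tool. Treatments were either a single drug or a fixed dose of an anchor drug with five library-drug doses (not always all listed) in √10 steps. After 5 days, nuclei were stained in a one-step fixation (final 0.05% Triton X-100, 1% formaldehyde, 1 ug/ml Hoechst) and counted on 4× images, and relative viability is the treated-to-vehicle nuclei ratio, as the median of duplicate plates.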

Dabrafenib + Olaparib = compound: CC(C)(C)c1nc(-c2cccc(NS(=O)(=O)c3c(F)cccc3F)c2F)c(-c2ccnc(N)n2)s1 [Dabrafenib] + O=C(c1cc(Cc2n[nH]c(=O)c3ccccc23)ccc1F)N1CCN(C(=O)C2CC2)CC1 [Olaparib] (partner 8 µM)
How it was run: as §1

VX-702 + OSI-027 = compound: NC(=O)c1ccc(N(C(N)=O)c2c(F)cccc2F)nc1-c1ccc(F)cc1F [VX-702] + COc1cccc2cc(-c3nc([C@H]4CC[C@H](C(=O)O)CC4)n4ncnc(N)c34)[nH]c12 [OSI-027] (partner 0.5 µM)
How it was run: as §1

VX-702 + Trametinib = compound: NC(=O)c1ccc(N(C(N)=O)c2c(F)cccc2F)nc1-c1ccc(F)cc1F [VX-702] + CC(=O)Nc1cccc(-n2c(=O)n(C3CC3)c(=O)c3c(Nc4ccc(I)cc4F)n(C)c(=O)c(C)c32)c1 [Trametinib] (partner 0.02 µM)
How it was run: as §1

Cell Line	relative viability (VX-702 + Crizotinib; first compound 0.02 µM)	relative viability (VX-702 + Crizotinib; first compound 0.2 µM)	relative viability (VX-702 + Crizotinib; first compound 0.6325 µM)	relative viability (VX-702 + Crizotinib; first compound 2 µM)	relative viability (Dabrafenib + Olaparib; first compound 0.003 µM)	relative viability (Dabrafenib + Olaparib; first compound 0.009487 µM)	relative viability (Dabrafenib + Olaparib; first compound 0.03 µM)	relative viability (Dabrafenib + Olaparib; first compound 0.09487 µM)	relative viability (Dabrafenib + Olaparib; first compound 0.3 µM)	relative viability (VX-702 + OSI-027; first compound 0.02 µM)	relative viability (VX-702 + OSI-027; first compound 0.2 µM)	relative viability (VX-702 + OSI-027; first compound 0.6325 µM)	relative viability (VX-702 + OSI-027; first compound 2 µM)	relative viability (VX-702 + Trametinib; first compound 0.02 µM)	relative viability (VX-702 + Trametinib; first compound 0.2 µM)	relative viability (VX-702 + Trametinib; first compound 0.6325 µM)	relative viability (VX-702 + Trametinib; first compound 2 µM)
201T	1.01	1.02	1.08	1.04	0.87	0.836	0.762	0.811	0.841	0.732	0.499	0.69	0.735	0.733	0.756	0.744	0.774
A549	0.754	0.812	0.739	1.08	–	0.34	0.293	0.112	0.317	–	–	–	–	–	–	–	–
A-427	0.824	0.81	0.808	1.01	0.704	0.685	0.707	0.658	0.726	0.4	0.447	0.427	0.352	0.752	0.707	0.687	0.724
ABC-1	1.34	–	1.08	1.42	–	0.707	0.953	0.849	1.26	0.47	0.578	0.509	0.615	–	–	–	–
BEN	0.732	0.781	0.937	0.956	–	1.24	–	1.02	1.18	0.31	0.298	0.315	0.328	1.1	0.907	1.03	1.07
CAL-12T	0.636	0.564	0.756	0.651	0.657	0.685	0.671	0.574	0.76	0.624	0.715	0.661	0.506	0.368	0.371	0.321	0.329
COR-L23	0.768	0.666	0.668	0.757	0.394	0.291	0.312	0.325	0.324	0.989	0.75	0.766	0.961	0.715	0.602	0.686	0.69
COR-L 105	0.653	0.79	0.956	1.21	0.685	0.793	0.702	0.599	0.799	0.661	0.679	0.688	0.517	0.472	0.437	0.395	0.42
Calu-6	0.847	0.86	0.764	0.996	0.569	0.556	0.482	0.303	0.481	–	–	–	–	–	–	–	–
ChaGo-K-1	1.09	1.1	1.21	1.23	0.458	0.413	0.404	0.312	0.455	0.641	0.624	0.567	0.566	0.948	0.903	0.859	0.844
EBC-1	0.191	0.18	0.158	0.201	0.686	0.691	0.664	0.39	0.474	–	–	–	–	–	–	–	–
EKVX	0.774	0.969	0.905	1.2	–	0.763	0.766	0.641	0.966	0.811	0.607	0.675	0.668	0.241	0.291	0.307	0.281
EMC-BAC-2	0.779	0.678	0.791	0.698	–	0.444	0.433	0.336	0.388	0.372	0.404	0.355	0.313	0.914	0.921	0.842	0.725
IA-LM	0.792	0.862	0.722	1.05	0.873	0.743	0.831	0.687	0.554	–	–	–	–	–	–	–	–
NCI-H522	–	–	–	–	–	0.788	0.59	0.642	0.633	0.649	0.718	0.681	0.747	0.736	0.759	0.708	0.74
NCI-H1299	1.07	0.97	0.942	1.07	0.932	0.886	0.902	0.884	0.794	–	–	–	–	–	–	–	–
NCI-H1395	–	–	–	–	–	0.497	0.473	0.456	0.495	0.725	0.642	0.663	0.677	1.06	1.11	1.09	1.24
NCI-H1563	0.848	0.875	0.83	0.865	–	–	–	–	–	0.77	0.748	0.738	0.722	–	–	–	–
NCI-H1623	–	–	–	–	–	–	–	–	–	0.403	0.406	0.424	0.43	–	–	–	–
NCI-H1648	–	–	–	–	1.01	0.98	–	0.523	0.765	0.278	0.275	0.251	0.253	0.395	0.579	0.593	0.435
NCI-H1703	0.645	0.585	0.608	0.78	0.602	0.548	0.326	0.341	0.395	–	–	–	–	–	–	–	–
NCI-H1793	–	–	–	–	–	1.06	–	0.612	1.09	0.292	0.217	0.235	0.218	0.438	–	0.452	0.451
NCI-H2342	–	–	–	–	0.42	0.435	0.401	0.454	0.541	0.632	0.651	0.644	0.692	0.686	1.01	0.871	0.835
